A word on the solubility: it is the concentration that dissolves in the medium under given conditions. Lower therefore signals little dissolved substance. The term Tmax denotes the time at which the peak concentration occurs.

The structures appear in SMILES notation. Some results are limits rather than exact numbers.

Our source for the solubility and Tmax values is patent EP0640341A1, “Sustained release pharmaceutical composition and process for producing same” (priority 1993, dated 1995).

Series [1] is described as follows: Solubility in Japanese pharmacopoeia test liquids. The class given is physicochemical. The source says: For example, the above pyrimidinedione derivative is a basic drug, and has general characteristics that it is easily soluble on an acid side of a pH but very little soluble on a neutral side or an alkaline side. That is to say, in the digestive organs, the pyrimidinedione derivative is easily dissolved and released in the stomach owing to an acid therein, but the dissolution and the release of the pyrimidinedione derivative deteriorate in the intestines because the intestines are a neutral or an alkaline state. Furthermore, the deterioration of the solubility of the pyrimidinedione derivative with the increase of the pH is remarkable.

Series [2] is described as follows: Oral administration test of the drug, concentration in blood. From the text:
For example, in Example 18 of Japanese Patent Application Laid-open No. 173873/1991, the pyrimidinedione derivative is sufficiently mixed with lactose and starch, and the resultant mixture is then filled into capsules to manufacture the desired drug. The present inventors actually carried out an oral administration test for the drug.

Consider `Cn1c(NCCN(CCO)CCCc2ccc([N+](=O)[O-])cc2)cc(=O)n(C)c1=O` [the pyrimidinedione derivative, 1,3-dimethyl-6-{2-{N-(2-hydroxyethyl)-N-[3-(4-nitrophenyl)propyl]amino}ethylamino}-2,4-(1H,3H)-pyrimidinedione], for which the solubility in series [1] (jp test liquid no. 1, Japanese pharmacopoeia test liquid No. 1 (pH = 1.2)) was at least 1000 mg/mL; in series [1] (jp test liquid no. 2, Japanese pharmacopoeia test liquid No. 2 (pH = 6.8)), at most 0.1 mg/mL. The Tmax in series [2] is at most 30 min.
